# Results reported in ChEMBL document CHEMBL5614417, “Discovery of AMPs from random peptides via deep learning-based model and biological activity validation” (Eur J Med Chem, 2024).
# Calls of active or inactive are those of the source. The rule behind the calls is not given here. Where a SMILES comes first, the peptide text is derived from it.
# Key:
# Staphylococcus aureus [1] = test: Antibacterial activity against Staphylococcus aureus ATCC 25923 incubated for 18 hrs by visual inspection method; format: functional
# [2] = test system: Staphylococcus epidermidis; test: Antibacterial activity against Staphylococcus epidermidis ATCC 12228 incubated for 18 hrs by visual inspection method; format: functional
# Bacillus subtilis = test: Antibacterial activity against Bacillus subtilis ATCC 23857 incubated for 18 hrs by visual inspection method; format: functional
# Escherichia coli [3] = test: Antibacterial activity against Escherichia coli ATCC 25922 incubated for 18 hrs by visual inspection method; format: functional
# Acinetobacter baumannii [4] = test: Antibacterial activity against Acinetobacter baumannii ATCC 19606 incubated for 18 hrs by visual inspection method; format: functional
# Klebsiella pneumoniae = test: Antibacterial activity against Klebsiella pneumoniae ATCC 700603 incubated for 18 hrs by visual inspection method; format: functional
# Staphylococcus aureus [5] = test: Antibacterial activity against methicillin resistant Staphylococcus aureus 1 incubated for 18 hrs by visual inspection method; format: functional
# Staphylococcus aureus [6] = test: Antibacterial activity against methicillin resistant Staphylococcus aureus 2 incubated for 18 hrs by visual inspection method; format: functional
# Staphylococcus aureus [7] = test: Antibacterial activity against methicillin resistant Staphylococcus aureus 3 incubated for 18 hrs by visual inspection method; format: functional
# Staphylococcus aureus [8] = test: Antibacterial activity against methicillin resistant Staphylococcus aureus 4 incubated for 18 hrs by visual inspection method; format: functional
# Escherichia coli [9] = test: Antibacterial activity against ESBL Escherichia coli 1 incubated for 18 hrs by visual inspection method; format: functional
# Escherichia coli [10] = test: Antibacterial activity against ESBL Escherichia coli 2 incubated for 18 hrs by visual inspection method; format: functional
# Escherichia coli [11] = test: Antibacterial activity against ESBL Escherichia coli 3 incubated for 18 hrs by visual inspection method; format: functional
# Escherichia coli [12] = test: Antibacterial activity against ESBL Escherichia coli 4 incubated for 18 hrs by visual inspection method; format: functional
# Escherichia coli [13] = test: Antibacterial activity against ESBL Escherichia coli 5 incubated for 18 hrs by visual inspection method; format: functional
# Acinetobacter baumannii [14] = test: Antibacterial activity against multidrug resistant Acinetobacter baumannii 1 incubated for 18 hrs by visual inspection method; format: functional
# Acinetobacter baumannii [15] = test: Antibacterial activity against multidrug resistant Acinetobacter baumannii 2 incubated for 18 hrs by visual inspection method; format: functional
# Acinetobacter baumannii [16] = test: Antibacterial activity against multidrug resistant Acinetobacter baumannii 3 incubated for 18 hrs by visual inspection method; format: functional
# Acinetobacter baumannii [17] = test: Antibacterial activity against multidrug resistant Acinetobacter baumannii 4 incubated for 18 hrs by visual inspection method; format: functional
# Acinetobacter baumannii [18] = test: Antibacterial activity against multidrug resistant Acinetobacter baumannii 5 incubated for 18 hrs by visual inspection method; format: functional
# Erythrocyte [19] = test: Hemolytic activity in rat erythrocytes incubated for 1 hr; format: toxicity, cell-based
# Staphylococcus aureus [20] = test: Antibacterial activity against Staphylococcus aureus ATCC 25923 incubated for 18 hrs in presence of 50 mM NaCl by visual inspection method; format: functional
# Staphylococcus aureus [21] = test: Antibacterial activity against Staphylococcus aureus ATCC 25923 incubated for 18 hrs in presence of 100 mM NaCl by visual inspection method; format: functional
# Staphylococcus aureus [22] = test: Antibacterial activity against Staphylococcus aureus ATCC 25923 incubated for 18 hrs in presence of 150 mM NaCl by visual inspection method; format: functional
# Escherichia coli [23] = test: Antibacterial activity against Escherichia coli ATCC 25922 incubated for 18 hrs in presence of 50 mM NaCl by visual inspection method; format: functional
# Escherichia coli [24] = test: Antibacterial activity against Escherichia coli ATCC 25922 incubated for 18 hrs in presence of 100 mM NaCl by visual inspection method; format: functional
# Escherichia coli [25] = test: Antibacterial activity against Escherichia coli ATCC 25922 incubated for 18 hrs in presence of 150 mM NaCl by visual inspection method; format: functional
# [26] = Hemolytic activity in rat erythrocytes at 1000 ug/ml incubated for 1 hr; format: toxicity, cell-based, Erythrocyte; settings: at 1000 µg/mL, read-out: Activity
# Erythrocyte [27] = test: Hemolytic activity in rat erythrocytes at 500 to 1000 ug/ml incubated for 1 hr; format: toxicity, cell-based; settings: dose 500-1000 µg/ml
# Erythrocyte [28] = test: Hemolytic activity in rat erythrocytes at 250 ug/ml incubated for 1 hr; format: toxicity, cell-based; settings: dose 250 µg/ml
# Cell membrane [29] = test: Induction of cell membrane damage in Staphylococcus aureus assessed as decrease in red/green fluorescence ratio by DiOC2(3) fluorescent probe based assay; format: cell membranes
# Cell membrane [30] = test: Induction of cell membrane damage in Staphylococcus aureus assessed as decrease in red/green fluorescence ratio at 2 times MIC by DiOC2(3) fluorescent probe based assay; format: cell membranes
# Cell membrane [31] = test: Disruption of outer membrane integrity in Escherichia coli assessed as increase in fluorescence intensity by measuring NPN uptake at 1 to 4 times MIC by fluorescence based analysis; format: cell membranes; settings: TDE = time-dependent effect
# Cell membrane [32] = test: Disruption of outer membrane integrity in Escherichia coli assessed as increase in fluorescence intensity by measuring NPN uptake measured every min for 15 mins by fluorescence based analysis; format: cell membranes
# Cell membrane [33] = test: Induction of inner membrane permeability in Escherichia coli ML-35 at 1 to 4 times MIC by ONPG dye based assay; format: cell membranes; settings: TDE = time-dependent effect
# Cell membrane [34] = test: Induction of inner membrane permeability in Escherichia coli ML-35 measured every 5 mins for 90 mins by ONPG dye based assay; format: cell membranes
# Cell membrane [35] = test: Induction of cell membrane damage in Staphylococcus aureus at 4 times MIC incubated for 30 mins by PI staining based confocal laser scanning microscopic analysis; format: cell membranes
# Cell membrane [36] = test: Induction of cell membrane damage in Escherichia coli at 4 times MIC incubated for 30 mins by PI staining based confocal laser scanning microscopic analysis; format: cell membranes
# Cell membrane [37] = test: Induction of cell membrane damage in Staphylococcus aureus assessed as change in morphology by measuring roughened membrane at 4 times MIC incubated for 5 hrs by SEM analysis; format: cell membranes
# Cell membrane [38] = test: Induction of cell membrane damage in Staphylococcus aureus assessed as change in morphology by measuring deformed membrane at 4 times MIC incubated for 5 hrs by SEM analysis; format: cell membranes
# Cell membrane [39] = test: Induction of cell membrane damage in Staphylococcus aureus assessed as change in morphology by measuring numerous blebs covered membrane at 4 times MIC incubated for 5 hrs by SEM analysis; format: cell membranes
# Cell membrane [40] = test: Induction of cell membrane damage in Escherichia coli assessed as change in morphology by measuring roughened membrane at 4 times MIC incubated for 5 hrs by SEM analysis; format: cell membranes
# Cell membrane [41] = test: Induction of cell membrane damage in Escherichia coli assessed as change in morphology by measuring deformed membrane at 4 times MIC incubated for 5 hrs by SEM analysis; format: cell membranes
# Cell membrane [42] = test: Induction of cell membrane damage in Escherichia coli assessed as change in morphology by measuring numerous blebs covered membrane at 4 times MIC incubated for 5 hrs by SEM analysis; format: cell membranes
# [43] = Stability in Sprague-Dawley rat serum at 62.5 ug/ml measured upto 480 mins by RP-HPLC method; format: ADME, cell-free; settings: 8 h, at 62.5 µg/mL
# Staphylococcus aureus [44] = test: Antibacterial activity against Staphylococcus aureus infected in BALB/c mouse at 10 mg/kg administered every 4 hrs for 3 doses and measured after 4 hrs post last dose; format: functional, organism-based; settings: time 16.0 hrs
# Staphylococcus aureus [45] = test: Induction of resistance development against Staphylococcus aureus assessed as fold increase in MIC after 21 passages; format: functional
smiles,measurement,setting,value
CC[C@H](C)[C@H](NC(=O)[C@H](Cc1c[nH]c2ccccc12)NC(=O)CNC(=O)[C@H](CCC(N)=O)NC(=O)[C@@H](N)CCCNC(=N)N)C(=O)N[C@@H](Cc1c[nH]c2ccccc12)C(=O)N[C@@H](Cc1ccc(O)cc1)C(=O)NCC(=O)N[C@@H](Cc1ccccc1)C(=O)N[C@@H](Cc1ccccc1)C(=O)N[C@@H](Cc1c[nH]c2ccccc12)C(=O)N[C@@H](CCCCN)C(=O)N[C@@H](CCCCN)C(N)=O (H-RQGWIWYGFFWKK-NH2),MIC,Staphylococcus aureus [1],7.5 µg/mL
same,MIC,[2],3.75 µg/mL
same,MIC,Bacillus subtilis,7.5 µg/mL
same,MIC,Escherichia coli [3],30 µg/mL
same,MIC,Acinetobacter baumannii [4],15 µg/mL
same,MIC,Klebsiella pneumoniae,60 µg/mL
same,MIC,Staphylococcus aureus [5],7.5 µg/mL
same,MIC,Staphylococcus aureus [6],7.5 µg/mL
same,MIC,Staphylococcus aureus [7],7.5 µg/mL
same,MIC,Staphylococcus aureus [8],7.5 µg/mL
same,MIC,Escherichia coli [9],30 µg/mL
same,MIC,Escherichia coli [10],30 µg/mL
same,MIC,Escherichia coli [11],30 µg/mL
same,MIC,Escherichia coli [12],30 µg/mL
same,MIC,Escherichia coli [13],30 µg/mL
same,MIC,Acinetobacter baumannii [14],15 µg/mL
same,MIC,Acinetobacter baumannii [15],15 µg/mL
same,MIC,Acinetobacter baumannii [16],15 µg/mL
same,MIC,Acinetobacter baumannii [17],15 µg/mL
same,MIC,Acinetobacter baumannii [18],15 µg/mL
same,HC5,Erythrocyte [19],560.73 µg/mL
same,MIC,Staphylococcus aureus [20],7.5 µg/mL
same,MIC,Staphylococcus aureus [21],7.5 µg/mL
same,MIC,Staphylococcus aureus [22],7.5 µg/mL
same,MIC,Escherichia coli [23],30 µg/mL
same,MIC,Escherichia coli [24],30 µg/mL
same,MIC,Escherichia coli [25],30 µg/mL
same,"hemolysis at 1 h, 1000 ug/ml",[26],7.47%
same,Activity,Erythrocyte [27],Toxic
same,Activity,Erythrocyte [28],Non-Toxic
same,Activity,Cell membrane [29],Dose-Dependent Effect
same,Activity,Cell membrane [30],Active
same,Activity,Cell membrane [31],Tde
same,Activity,Cell membrane [32],Dose-Dependent Effect
same,Activity,Cell membrane [33],Tde
same,Activity,Cell membrane [34],Dose-Dependent Effect
same,Activity,Cell membrane [35],Active
same,Activity,Cell membrane [36],Active
same,Activity,Cell membrane [37],Active
same,Activity,Cell membrane [38],Active
same,Activity,Cell membrane [39],Active
same,Activity,Cell membrane [40],Active
same,Activity,Cell membrane [41],Active
same,Activity,Cell membrane [42],Active
CC[C@H](C)[C@H](NC(=O)[C@@H](N)CCCNC(=N)N)C(=O)NCC(=O)N[C@@H](Cc1c[nH]c2ccccc12)C(=O)N[C@@H](CS)C(=O)N[C@@H](C)C(=O)N[C@@H](Cc1c[nH]c2ccccc12)C(=O)N[C@@H](CC(C)C)C(=O)N[C@@H](CC(C)C)C(=O)N[C@@H](CCCCN)C(=O)N[C@@H](CC(N)=O)C(=O)N[C@@H](CCCCN)C(=O)N[C@@H](C)C(N)=O (H-RIGWCAWLLKNKA-NH2),MIC,Staphylococcus aureus [1],60 µg/mL
same,MIC,[2],15 µg/mL
same,MIC,Bacillus subtilis,15 µg/mL
same,MIC,Escherichia coli [3],30 µg/mL
same,MIC,Acinetobacter baumannii [4],15 µg/mL
same,MIC,Klebsiella pneumoniae,60 µg/mL
same,MIC,Staphylococcus aureus [5],60 µg/mL
same,MIC,Staphylococcus aureus [6],60 µg/mL
same,MIC,Staphylococcus aureus [7],60 µg/mL
same,MIC,Staphylococcus aureus [8],60 µg/mL
same,MIC,Escherichia coli [9],30 µg/mL
same,MIC,Escherichia coli [10],30 µg/mL
same,MIC,Escherichia coli [11],30 µg/mL
same,MIC,Escherichia coli [12],30 µg/mL
same,MIC,Escherichia coli [13],30 µg/mL
same,MIC,Acinetobacter baumannii [14],15 µg/mL
same,MIC,Acinetobacter baumannii [15],15 µg/mL
same,MIC,Acinetobacter baumannii [16],15 µg/mL
same,MIC,Acinetobacter baumannii [17],15 µg/mL
same,MIC,Acinetobacter baumannii [18],15 µg/mL
same,HC5,Erythrocyte [19],779.41 µg/mL
same,MIC,Staphylococcus aureus [20],60 µg/mL
same,MIC,Staphylococcus aureus [21],60 µg/mL
same,MIC,Staphylococcus aureus [22],60 µg/mL
same,MIC,Escherichia coli [23],30 µg/mL
same,MIC,Escherichia coli [24],30 µg/mL
same,MIC,Escherichia coli [25],30 µg/mL
same,"hemolysis at 1 h, 1000 ug/ml",[26],8.18%
same,Activity,Erythrocyte [27],Toxic
same,Activity,Erythrocyte [28],Non-Toxic
same,Stability,[43],Unstable
same,Activity,Cell membrane [29],Dose-Dependent Effect
same,Activity,Cell membrane [30],Active
same,Activity,Cell membrane [31],Tde
same,Activity,Cell membrane [32],Dose-Dependent Effect
same,Activity,Cell membrane [33],Tde
same,Activity,Cell membrane [34],Dose-Dependent Effect
same,Activity,Cell membrane [35],Active
same,Activity,Cell membrane [36],Active
same,Activity,Cell membrane [37],Active
same,Activity,Cell membrane [38],Active
same,Activity,Cell membrane [39],Active
same,Activity,Cell membrane [40],Active
same,Activity,Cell membrane [41],Active
same,Activity,Cell membrane [42],Active
CN[C@H](CC(C)C)C(=O)N[C@H]1C(=O)N[C@@H](CC(N)=O)C(=O)N[C@H]2C(=O)N[C@H]3C(=O)N[C@H](C(=O)N[C@H](C(=O)O)c4cc(O)cc(O)c4-c4cc3ccc4O)[C@H](O)c3ccc(c(Cl)c3)Oc3cc2cc(c3O[C@@H]2O[C@H](CO)[C@@H](O)[C@H](O)[C@H]2O[C@H]2C[C@](C)(N)[C@H](O)[C@H](C)O2)Oc2ccc(cc2Cl)[C@H]1O [VANCOMYCIN],MIC,Staphylococcus aureus [1],0.94 µg/mL
same,MIC,[2],0.94 µg/mL
same,MIC,Bacillus subtilis,0.94 µg/mL
same,MIC,Staphylococcus aureus [5],0.94 µg/mL
same,MIC,Staphylococcus aureus [6],0.94 µg/mL
same,MIC,Staphylococcus aureus [7],0.94 µg/mL
same,MIC,Staphylococcus aureus [8],0.94 µg/mL
same,Activity,Staphylococcus aureus [44],Active
O=C(O)c1cn(C2CC2)c2cc(N3CCNCC3)c(F)cc2c1=O,fold change (FC),Staphylococcus aureus [45],16
